Our source for the IC50 values is BindingDB's records for patent US9790180 (REGENACY PHARMACEUTICALS, LLC, 2017).

The target in experiment [1] is Histone deacetylase 3 (Homo sapiens, UniProt O15379).
Experiment [2] deals with Histone deacetylase 2 (Homo sapiens, UniProt Q92769).

Where only a bound is given, the exact number is not on record here.

Histone deacetylase 3, sequence (O15379 whole entry): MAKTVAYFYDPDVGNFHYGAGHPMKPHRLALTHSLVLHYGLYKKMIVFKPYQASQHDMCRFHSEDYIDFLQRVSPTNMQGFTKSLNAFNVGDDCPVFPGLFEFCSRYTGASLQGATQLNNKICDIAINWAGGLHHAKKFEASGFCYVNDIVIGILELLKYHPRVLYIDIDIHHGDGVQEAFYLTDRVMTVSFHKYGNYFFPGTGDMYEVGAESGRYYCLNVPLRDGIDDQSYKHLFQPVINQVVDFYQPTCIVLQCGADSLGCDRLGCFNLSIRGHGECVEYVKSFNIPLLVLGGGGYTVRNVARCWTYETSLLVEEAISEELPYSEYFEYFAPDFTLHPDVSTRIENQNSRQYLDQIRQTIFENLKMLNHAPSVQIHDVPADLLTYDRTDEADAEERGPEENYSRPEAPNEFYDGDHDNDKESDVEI
Histone deacetylase 2, sequence (Q92769 whole entry): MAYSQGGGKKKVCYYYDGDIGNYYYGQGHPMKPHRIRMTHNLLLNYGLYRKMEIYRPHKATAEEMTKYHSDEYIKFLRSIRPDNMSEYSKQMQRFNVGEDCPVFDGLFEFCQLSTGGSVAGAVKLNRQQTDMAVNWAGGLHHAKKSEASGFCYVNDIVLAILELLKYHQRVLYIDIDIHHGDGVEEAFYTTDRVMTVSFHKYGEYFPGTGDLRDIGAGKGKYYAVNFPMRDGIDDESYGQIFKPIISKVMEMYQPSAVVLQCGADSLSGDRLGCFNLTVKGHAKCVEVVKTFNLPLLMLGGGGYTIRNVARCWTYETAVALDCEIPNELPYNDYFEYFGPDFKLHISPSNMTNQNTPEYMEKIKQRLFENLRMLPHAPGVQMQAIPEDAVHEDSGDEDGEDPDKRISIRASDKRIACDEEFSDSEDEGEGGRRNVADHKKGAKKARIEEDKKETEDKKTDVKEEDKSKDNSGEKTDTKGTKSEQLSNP

Usually IC50 stands for the midpoint of a concentration-inhibition curve. High values mean weaker potency in that assay, low ones greater potency in that assay. Regarding `Nc1ccc(-c2ccccc2)cc1NC(=O)c1cnc(NC2CCN(C(=O)Cc3c[nH]c4ccccc34)CC2)nc1` [US9790180, ID 035], the IC50 in experiment [1] stood at 1400 nM; in experiment [2], 196 nM.

For `CN(c1ncc(C(=O)Nc2cc(-c3ccccc3)ccc2N)cn1)C1CCN(C(=O)Cc2c[nH]c3ccccc23)CC1` [US9790180, ID 033], the IC50 in experiment [1] was more than 2000 nM; in experiment [2], 211 nM.

With `CC1(Nc2ncc(C(=O)Nc3cc(-c4ccccc4)ccc3N)cn2)CCNCC1` [US9790180, ID 041], the IC50 in experiment [1] was 252 nM; in experiment [2], 26 nM.
